According to patent US20240398784A1, “C-LINKED ISOQUINOLINE AMIDES AS LRRK2 INHIBITORS, PHARMACEUTICAL COMPOSITIONS, AND USES THEREOF” (Merck Sharp & Dohme LLC, priority 2021, published 2024):

These compounds were tested against LRRK2 G2019S (Homo sapiens, UniProt Q5S007, G2019S) (assay: LRRK2 G2019S Km ATP LanthaScreen assay). Details: read-out: LRRK2 pIC50 (converted).
Format: biochemical

Chain of LRRK2 G2019S (Q5S007 whole entry G2019S): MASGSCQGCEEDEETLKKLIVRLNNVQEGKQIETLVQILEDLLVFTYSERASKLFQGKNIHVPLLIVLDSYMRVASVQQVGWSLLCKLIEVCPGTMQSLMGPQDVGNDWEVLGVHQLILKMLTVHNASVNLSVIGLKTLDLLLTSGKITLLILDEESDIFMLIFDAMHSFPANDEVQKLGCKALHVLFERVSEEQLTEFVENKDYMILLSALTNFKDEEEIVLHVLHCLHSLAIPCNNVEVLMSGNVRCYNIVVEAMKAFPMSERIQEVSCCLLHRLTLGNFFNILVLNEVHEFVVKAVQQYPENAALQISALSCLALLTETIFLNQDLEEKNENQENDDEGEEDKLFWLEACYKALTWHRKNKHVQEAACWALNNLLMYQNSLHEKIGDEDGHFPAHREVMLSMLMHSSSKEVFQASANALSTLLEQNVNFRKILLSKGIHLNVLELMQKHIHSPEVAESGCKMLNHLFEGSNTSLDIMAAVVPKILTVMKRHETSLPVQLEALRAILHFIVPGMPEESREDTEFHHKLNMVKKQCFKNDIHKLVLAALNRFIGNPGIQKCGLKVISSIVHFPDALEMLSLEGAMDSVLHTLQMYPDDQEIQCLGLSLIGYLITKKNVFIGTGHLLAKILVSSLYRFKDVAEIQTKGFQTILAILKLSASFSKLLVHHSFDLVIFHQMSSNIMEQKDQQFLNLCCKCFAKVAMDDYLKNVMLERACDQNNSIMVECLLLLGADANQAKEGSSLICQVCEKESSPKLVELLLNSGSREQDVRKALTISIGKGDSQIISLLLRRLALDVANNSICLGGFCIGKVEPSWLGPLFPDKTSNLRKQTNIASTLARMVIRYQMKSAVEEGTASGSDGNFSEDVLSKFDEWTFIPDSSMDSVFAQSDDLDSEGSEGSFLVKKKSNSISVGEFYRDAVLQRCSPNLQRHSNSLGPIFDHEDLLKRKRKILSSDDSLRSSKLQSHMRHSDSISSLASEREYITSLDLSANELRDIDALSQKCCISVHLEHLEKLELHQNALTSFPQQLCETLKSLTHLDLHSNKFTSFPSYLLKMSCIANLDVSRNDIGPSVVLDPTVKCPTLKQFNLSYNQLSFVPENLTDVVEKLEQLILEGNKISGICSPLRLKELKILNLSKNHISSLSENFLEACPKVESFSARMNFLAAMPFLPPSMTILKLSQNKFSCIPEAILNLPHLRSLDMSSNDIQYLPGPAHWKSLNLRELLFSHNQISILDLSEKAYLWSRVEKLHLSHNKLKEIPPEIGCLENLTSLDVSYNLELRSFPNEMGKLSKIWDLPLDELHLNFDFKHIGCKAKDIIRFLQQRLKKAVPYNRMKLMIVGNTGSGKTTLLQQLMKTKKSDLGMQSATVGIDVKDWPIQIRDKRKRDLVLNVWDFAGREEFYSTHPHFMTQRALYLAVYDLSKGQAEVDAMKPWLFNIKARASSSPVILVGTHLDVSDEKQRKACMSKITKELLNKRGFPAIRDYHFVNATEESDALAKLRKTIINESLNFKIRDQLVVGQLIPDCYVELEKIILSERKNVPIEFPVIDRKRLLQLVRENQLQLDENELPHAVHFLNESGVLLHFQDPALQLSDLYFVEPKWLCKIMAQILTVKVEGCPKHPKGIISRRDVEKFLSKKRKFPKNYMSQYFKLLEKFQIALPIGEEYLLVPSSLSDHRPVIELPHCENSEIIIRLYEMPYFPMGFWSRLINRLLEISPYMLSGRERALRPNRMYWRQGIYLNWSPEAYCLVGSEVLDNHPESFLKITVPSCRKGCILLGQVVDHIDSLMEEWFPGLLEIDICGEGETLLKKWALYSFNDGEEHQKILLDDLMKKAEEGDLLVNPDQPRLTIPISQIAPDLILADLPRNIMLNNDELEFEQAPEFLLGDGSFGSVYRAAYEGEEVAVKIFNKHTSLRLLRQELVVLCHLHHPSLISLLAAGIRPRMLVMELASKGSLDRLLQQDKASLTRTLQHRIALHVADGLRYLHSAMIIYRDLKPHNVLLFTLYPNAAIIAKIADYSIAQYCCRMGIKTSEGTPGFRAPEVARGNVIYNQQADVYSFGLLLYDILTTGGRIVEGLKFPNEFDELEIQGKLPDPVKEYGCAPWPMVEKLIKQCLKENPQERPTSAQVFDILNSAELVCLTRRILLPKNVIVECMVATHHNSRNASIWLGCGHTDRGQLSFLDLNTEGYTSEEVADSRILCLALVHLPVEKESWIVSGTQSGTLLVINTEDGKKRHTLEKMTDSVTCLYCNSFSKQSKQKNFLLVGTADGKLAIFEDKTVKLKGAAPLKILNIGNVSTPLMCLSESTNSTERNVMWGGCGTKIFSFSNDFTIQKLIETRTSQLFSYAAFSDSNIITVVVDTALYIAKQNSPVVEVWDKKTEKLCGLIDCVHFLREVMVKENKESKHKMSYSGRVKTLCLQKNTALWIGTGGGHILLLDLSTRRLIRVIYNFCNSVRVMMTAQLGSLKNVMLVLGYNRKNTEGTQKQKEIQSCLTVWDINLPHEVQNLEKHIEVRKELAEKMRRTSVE

| Structure (SMILES) | IC50 [µM] |
| --- | --- |
| CC(C)Cn1nccc1C1CC1C(=O)Nc1cc2cc(C3CCN(C4(C)COCC4O)CC3)c(Cl)cc2cn1 (single isomer, unassigned) [Ex-4.62, N-(7-chloro-6-(1-(4-hydroxy-3-methyltetrahydrofuran-3-yl)piperidin-4-yl)isoquinolin-3-yl)-2-(1-isobutyl-1H-pyrazol-5-yl)cyclopropane-1-carboxamide] | 81300 |
| CC1(N2CCC(c3cc4cc(NC(=O)C5CC56CCOCC6)ncc4cc3Cl)CC2)CCOC1 (centres unmarked) [Ex-2.22] | 0.00457 |
| CC1(N2CCC(c3cc4cc(NC(=O)C5CC5c5cccnc5)ncc4cc3Cl)CC2)COCC1O (single isomer, unassigned) [Ex-4.41, N-(7-chloro-6-(1-(4-hydroxy-3-methyltetrahydrofuran-3-yl)piperidin-4-yl)isoquinolin-3-yl)-2-(pyridin-3-yl)cyclopropane-1-carboxamide] | 0.0457 |
| CC1C(C(=O)Nc2cc3cc(C4CCN(C5(C)COCC5F)CC4)c(Cl)cc3cn2)C1c1cnn(C)c1 (centres unmarked) [Ex-2.80] | 8.13e-05 |
| Cc1noc(C2CC2C(=O)Nc2cc3cc(C4CCN(C5(C)COCC5O)CC4)c(Cl)cc3cn2)n1 (single isomer, unassigned) [Ex-4.15, N-(7-chloro-6-(1-(4-hydroxy-3-methyltetrahydrofuran-3-yl)piperidin-4-yl)isoquinolin-3-yl)-2-(3-methyl-1,2,4-oxadiazol-5-yl)cyclopropane-1-carboxamide] | 8.13e-05 |
| Cc1ccc(C2CC2C(=O)Nc2cc3cc(C4CCN(C5(C)COCC5O)CC4)c(Cl)cc3cn2)s1 (single isomer, unassigned) [Ex-4.57, N-(7-chloro-6-(1-(4-hydroxy-3-methyltetrahydrofuran-3-yl)piperidin-4-yl)isoquinolin-3-yl)-2-(5-methylthiophen-2-yl)cyclopropane-1-carboxamide] | 0.0417 |
| Cn1ncc(C2CC2C(=O)Nc2cc3cc(C4(C#N)CC45CC5)ccc3cn2)c1Cl (centres unmarked) [Ex-2.79] | 0.0347 |
| CC1(C)CC1C(=O)Nc1cc2cc(C3CCN(C4(C)COCC4O)CC3)c(Cl)cc2cn1 (centres unmarked) [Ex-2.11] | 0.002 |
| O=C(Nc1cc2cc(C3CCN(C4COC4)CC3)c(Cl)cc2cn1)C1CC1(F)F (single isomer, unassigned) [Ex-1.5, (R or S)-N-(7-chloro-6-(1-(oxetan-3-yl)piperidin-4-yl)isoquinolin-3-yl)-2,2-difluorocyclopropane-1-carboxamide] | 0.00589 |
| Cn1ncc(C2CC2C(=O)Nc2cc3cc(C4(C#N)CC45CC5)ccc3cn2)c1Cl (centres unmarked) [Ex-2.78] | 0.0162 |
| CC(C)(O)C1CC1C(=O)Nc1cc2cc(C3CCN(C4(C)COCC4O)CC3)c(Cl)cc2cn1 (single isomer, unassigned) [Ex-4.10, Trans-N-(7-chloro-6-(1-(4-hydroxy-3-methyltetrahydrofuran-3-yl)piperidin-4-yl)isoquinolin-3-yl)-2-(2-hydroxypropan-2-yl)cyclopropane-1-carboxamide] | 8.13e-05 |
| CC1(N2CCC(c3cc4cc(NC(=O)C5C6CCCOC65)ncc4cc3Cl)CC2)COCC1O (single isomer, unassigned) [Ex-4.11, N-(7-chloro-6-(1-(4-hydroxy-3-methyltetrahydrofuran-3-yl)piperidin-4-yl)isoquinolin-3-yl)-2-oxabicyclo[4.1.0]heptane-7-carboxamide] | 0.000363 |
| Cn1ncc(C2CC2C(=O)Nc2cc3cc(C4CCN(C5(C)COCC5O)CC4)c(Cl)cc3cn2)c1C(F)(F)F (single isomer, unassigned) [Ex-4.37, N-(7-chloro-6-(1-(4-hydroxy-3-methyltetrahydrofuran-3-yl)piperidin-4-yl)isoquinolin-3-yl)-2-(1-methyl-5-(trifluoromethyl)-1H-pyrazol-4-yl)cyclopropane-1-carboxamide] | 8.13e-05 |
| O=C(Nc1cc2cc(C3CCN(C4COC4)CC3)c(Cl)cc2cn1)[C@@H]1CCCCO1 [Ex-1.10, (S)-N-(7-chloro-6-(1-(oxetan-3-yl)piperidin-4-yl)isoquinolin-3-yl)tetrahydro-2H-pyran-2-carboxamide] | 0.00398 |
| CC1(N2CCC(c3cc4cc(NC(=O)C5CCC(C(F)(F)F)OC5)ncc4cc3Cl)CC2)COCC1O (centres unmarked) [Ex-2.60] | 0.0479 |
| CC1(N2CCC(c3cc4cc(NC(=O)C5CC56CCC6)ncc4cc3Cl)CC2)COCC1O (single isomer, unassigned) [Ex-4.7, N-(7-chloro-6-(1-(4-hydroxy-3-methyltetrahydrofuran-3-yl)piperidin-4-yl)isoquinolin-3-yl)spiro[2.3]hexane-1-carboxamide] | 8.13e-05 |
| N#CC1(c2ccc3cnc(NC(=O)C4CC(OC(F)F)C4)cc3c2)CC12CC2 (single isomer, unassigned) [Ex-2.6] | 0.00912 |

Continued, values first:

| IC50 [µM] | Structure (SMILES) |
| --- | --- |
| 0.0347 | CC1(N2CCC(c3cc4cc(NC(=O)C5CC56CCOC6)ncc4cc3Cl)CC2)COCC1F (single isomer, unassigned) [Ex-6.8, (R or S)-N-(7-chloro-6-(1-((3R,4R or 3S,4S)-4-fluoro-3-methyltetrahydrofuran-3-yl)piperidin-4-yl)isoquinolin-3-yl)-5-oxaspiro [2.4] heptane-1-carboxamide] |
| 0.0224 | CC(C)n1nccc1C1CC1C(=O)Nc1cc2cc(C3CCN(C4(C)COCC4O)CC3)c(Cl)cc2cn1 (single isomer, unassigned) [Ex-4.63, N-(7-chloro-6-(1-(4-hydroxy-3-methyltetrahydrofuran-3-yl)piperidin-4-yl)isoquinolin-3-yl)-2-(1-isopropyl-1H-pyrazol-5-yl)cyclopropane-1-carboxamide] |
| 0.000178 | Cn1cc(C2CC2C(=O)Nc2cc3cc(C4CCN(C5(C)COCC5F)CC4)c(Cl)cc3cn2)cn1 (single isomer, unassigned) [Ex-6.31, N-(7-chloro-6-(1-(4-fluoro-3-methyltetrahydrofuran-3-yl)piperidin-4-yl)isoquinolin-3-yl)-2-(1-methyl-1H-pyrazol-4-yl)cyclopropane-1-carboxamide] |
| 0.000708 | CC1(N2CCC(c3cc4cc(NC(=O)C5CC5c5ccco5)ncc4cc3Cl)CC2)COCC1O (single isomer, unassigned) [Ex-4.65, N-(7-chloro-6-(1-(4-hydroxy-3-methyltetrahydrofuran-3-yl)piperidin-4-yl)isoquinolin-3-yl)-2-(furan-2-yl)cyclopropane-1-carboxamide] |
| 0.447 | Cn1cc(C(C)(C)C(=O)Nc2cc3cc(C4CCN(C5(C)COCC5F)CC4)c(Cl)cc3cn2)cn1 (single isomer, unassigned) [Ex-6.55, N-(7-chloro-6-(1-(4-fluoro-3-methyltetrahydrofuran-3-yl)piperidin-4-yl)isoquinolin-3-yl)-2-methyl-2-(1-methyl-1H-pyrazol-4-yl)propenamide] |
| 0.000195 | CC1(N2CCC(c3cc4cc(NC(=O)C5CC56CCOCC6)ncc4cc3F)CC2)COCC1O (single isomer, unassigned) [Ex-8.3, N-(7-fluoro-6-(1-(4-hydroxy-3-methyltetrahydrofuran-3-yl)piperidin-4-yl)isoquinolin-3-yl)-6-oxaspiro[2.5]octane-1-carboxamide] |
| 0.00166 | CC1(N2CCC(c3cc4cc(NC(=O)C5CC56CCOCC6)ncc4cc3Cl)CC2)COCC1F (single isomer, unassigned) [Ex-6.25, N-(7-chloro-6-(1-(4-fluoro-3-methyltetrahydrofuran-3-yl)piperidin-4-yl)isoquinolin-3-yl)-6-oxaspiro[2.5]octane-1-carboxamide] |
| 0.0105 | CC1(C)CCC(C(=O)Nc2cc3cc(C4CCC(N5CCC(F)C5)CC4)c(Cl)cc3cn2)CO1 (single isomer, unassigned) [Ex-5.20, N-(7-chloro-6-(4-(3-fluoropyrrolidin-1-yl)cyclohexyl)isoquinolin-3-yl)-6,6-dimethyltetrahydro-2H-pyran-3-carboxamide] |
| 0.000302 | Cc1cc2cnc(NC(=O)C3CC4(CC4)C3)cc2cc1C1CCN(C2(C)COCC2O)CC1 (single isomer, unassigned) [Ex-15.2, N-(6-(1-(4-hydroxy-3-methyltetrahydrofuran-3-yl)piperidin-4-yl)-7-methylisoquinolin-3-yl)spiro[2.3]hexane-5-carboxamide] |
| 0.0191 | N#CC1(c2ccc3cnc(NC(=O)C4CC4)cc3c2)CC1 [Ex-17.1] |
| 3.02 | CC1(C)CCC(C(=O)Nc2cc3cc(C4CCC(N5CCC(F)C5)CC4)c(Cl)cc3cn2)CO1 (single isomer, unassigned) [Ex-5.23, N-(7-chloro-6-(4-(3-fluoropyrrolidin-1-yl)cyclohexyl)isoquinolin-3-yl)-6,6-dimethyltetrahydro-2H-pyran-3-carboxamide] |
| 0.11 | CC1COCC1(C)N1CCC(c2cc3cc(NC(=O)C4CC45CCOCC5)ncc3cc2Cl)CC1 (single isomer, unassigned) [Ex-6.10, N-(7-chloro-6-(1-(3,4-dimethyltetrahydrofuran-3-yl)piperidin-4-yl)isoquinolin-3-yl)-6-oxaspiro[2.5]octane-1-carboxamide] |
| 0.011 | CC1C(C(=O)Nc2cc3cc(C4CCN(C5(C)COCC5O)CC4)c(Cl)cc3cn2)C12CCOCC2 (single isomer, unassigned) [Ex-10.6, N-(7-chloro-6-(1-(4-hydroxy-3-methyltetrahydrofuran-3-yl)piperidin-4-yl)isoquinolin-3-yl)-2-methyl-6-oxaspiro[2.5]octane-1-carboxamide] |
| 0.00646 | CC1(N2CCC(c3cc4cc(NC(=O)C5CC56CCOCC6)ncc4cc3Cl)CC2)CCOCC1F (single isomer, unassigned) [Ex-12.2, N-(7-chloro-6-(1-((3R,4R or 3S,4S)-3-fluoro-4-methyltetrahydro-2H-pyran-4-yl)piperidin-4-yl)isoquinolin-3-yl)-6-oxaspiro[2.5]octane-1-carboxamide] |
| 0.141 | CC1(N2CCC(c3cc4cc(NC(=O)C5CC56CCOC6)ncc4cc3Cl)CC2)COCC1F (single isomer, unassigned) [Ex-6.4, (R or S)-N-(7-chloro-6-(1-((3R,4R or 3S,4S)-4-fluoro-3-methyltetrahydrofuran-3-yl)piperidin-4-yl)isoquinolin-3-yl)-5-oxaspiro [2.4] heptane-1-carboxamide] |
